Data on 33 compounds can be found in ChEMBL document CHEMBL4340543, “Synthesis and biological evaluation of new HIV-1 protease inhibitors with purine bases as P2-ligands” (Bioorg Med Chem Lett, 2019).

For this assay, the target named is Protease (Human immunodeficiency virus 1, UniProt Q9YQ12). As to the kind of experiment: Inhibition of wild type HIV1 protease expressed in Escherichia coli using Arg-Glu (EDANS)-Ser-Gln-Asn-Tyr-Pro-Ile-Val-Gln-Lys(DABCYL)-Arg as substrate preincubated for 20 to 30 mins followed by substrate addition and measured for 10 mins by FRET assay.
Sequence of Protease (Q9YQ12 whole entry): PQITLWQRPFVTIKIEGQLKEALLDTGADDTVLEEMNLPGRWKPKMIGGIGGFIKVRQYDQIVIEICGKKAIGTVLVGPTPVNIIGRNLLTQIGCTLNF

The term IC50 denotes the concentration that gives 50% inhibition. `COc1ccc(S(=O)(=O)N(CC(C)C)C[C@@H](O)[C@H](Cc2ccccc2)NC(=O)Cn2c(C)nc3cncnc32)cc1` yielded an IC50 of 0.15 µM. Then `CC(C)CN(C[C@@H](O)[C@H](Cc1ccccc1)NC(=O)Cn1cnc2c(Cl)ncnc21)S(=O)(=O)c1ccc(N)cc1`, with 7.02 µM; and `CC(C)CN(C[C@@H](O)[C@H](Cc1ccccc1)NC(=O)Cn1cnc2cnc(N)nc21)S(=O)(=O)c1ccc(N)cc1`, with 6.79 µM; and `COc1nc(N)nc2c1ncn2CC(=O)N[C@@H](Cc1ccccc1)[C@H](O)CN(CC(C)C)S(=O)(=O)c1ccc([N+](=O)[O-])cc1`, with 1.73 µM. Next, `CC(C)CN(C[C@@H](O)[C@H](Cc1ccccc1)NC(=O)Cn1cnc2c(Cl)ncnc21)S(=O)(=O)c1ccc([N+](=O)[O-])cc1`: 0.31 µM; `Cc1ncnc2c1ncn2CC(=O)N[C@@H](Cc1ccccc1)[C@H](O)CN(CC(C)C)S(=O)(=O)c1ccc([N+](=O)[O-])cc1`: 2.53 µM; `COc1ccc(S(=O)(=O)N(CC(C)C)C[C@@H](O)[C@H](Cc2ccccc2)NC(=O)Cn2cnc3c(C)ncnc32)cc1`: 0.042 µM.

With `Cc1nc2cncnc2n1CC(=O)N[C@@H](Cc1ccccc1)[C@H](O)CN(CC(C)C)S(=O)(=O)c1ccc([N+](=O)[O-])cc1`, the IC50 was determined as 0.57 µM.

In turn, `CC(C)CN(C[C@@H](O)[C@H](Cc1ccccc1)NC(=O)Cn1cnc2c(N)ncnc21)S(=O)(=O)c1ccc([N+](=O)[O-])cc1` came in with a half-inhibitory concentration (IC50) of 3.58 µM.

Turning to `CC(C)CN(C[C@@H](O)[C@H](Cc1ccccc1)NC(=O)Cn1cnc2c(N)ncnc21)S(=O)(=O)c1ccc(N)cc1`, inhibition was half-maximal at 1.24 µM (IC50). `COc1ccc(S(=O)(=O)N(CC(C)C)C[C@@H](O)[C@H](Cc2ccccc2)NC(=O)Cn2cnc3c(N)ncnc32)cc1` returned an IC50 of 1.98 µM. Next, `CC(C)CN(C[C@@H](O)[C@H](Cc1ccccc1)NC(=O)Cn1cnc2c(Cl)nc(N)nc21)S(=O)(=O)c1ccc([N+](=O)[O-])cc1`: 0.96 µM; `COc1ccc(S(=O)(=O)N(CC(C)C)C[C@@H](O)[C@H](Cc2ccccc2)NC(=O)Cn2cnc3c(O)ncnc32)cc1`: 0.068 µM. Next, `Cc1ncnc2c1ncn2CC(=O)N[C@@H](Cc1ccccc1)[C@H](O)CN(CC(C)C)S(=O)(=O)c1ccc(N)cc1`: 3.76 µM; `CC(C)CN(C[C@@H](O)[C@H](Cc1ccccc1)NC(=O)Cn1cnc2cncnc21)S(=O)(=O)c1ccc(N)cc1`: 0.57 µM. Then `CC(C)CN(C[C@@H](O)[C@H](Cc1ccccc1)NC(=O)Cn1cnc2cnc(N)nc21)S(=O)(=O)c1ccc([N+](=O)[O-])cc1`, with 3.68 µM; and `COc1ccc(S(=O)(=O)N(CC(C)C)C[C@@H](O)[C@H](Cc2ccccc2)NC(=O)Cn2cnc3c(Cl)ncnc32)cc1`, with 0.043 µM; and `COc1ccc(S(=O)(=O)N(CC(C)C)C[C@@H](O)[C@H](Cc2ccccc2)NC(=O)Cn2cnc3c(OC)ncnc32)cc1`, with 0.18 µM.

The compound `CC(C)CN(C[C@@H](O)[C@H](Cc1ccccc1)NC(=O)Cn1cnc2c(O)ncnc21)S(=O)(=O)c1ccc(N)cc1` came in with an IC50 of 1.81 µM. Then `Cc1nc2cncnc2n1CC(=O)N[C@@H](Cc1ccccc1)[C@H](O)CN(CC(C)C)S(=O)(=O)c1ccc(N)cc1`, with 0.64 µM; and `CC(C)CN(C[C@@H](O)[C@H](Cc1ccccc1)NC(=O)Cn1cnc2c(Cl)nc(N)nc21)S(=O)(=O)c1ccc(N)cc1`, with 11.7 µM; and `COc1ccc(S(=O)(=O)N(CC(C)C)C[C@@H](O)[C@H](Cc2ccccc2)NC(=O)Cn2cnc3c(OC)nc(N)nc32)cc1`, with 0.46 µM.

The compound `CC(C)CN(C[C@@H](O)[C@H](Cc1ccccc1)NC(=O)Cn1cnc2c(O)ncnc21)S(=O)(=O)c1ccc([N+](=O)[O-])cc1` came in with an IC50 of 2.43 µM.

With `COc1ncnc2c1ncn2CC(=O)N[C@@H](Cc1ccccc1)[C@H](O)CN(CC(C)C)S(=O)(=O)c1ccc(N)cc1`, half-maximal inhibition (IC50) required 1.51 µM.

`COc1ncnc2c1ncn2CC(=O)N[C@@H](Cc1ccccc1)[C@H](O)CN(CC(C)C)S(=O)(=O)c1ccc([N+](=O)[O-])cc1` returned an IC50 of 2.6 µM. Then `CC(C)CN(C[C@@H](O)[C@H](Cc1ccccc1)NC(=O)Cn1cnc2c(O)nc(N)nc21)S(=O)(=O)c1ccc(N)cc1`, with 4.73 µM; and `COc1ccc(S(=O)(=O)N(CC(C)C)C[C@@H](O)[C@H](Cc2ccccc2)NC(=O)Cn2cnc3c(Cl)nc(N)nc32)cc1`, with 0.57 µM; and `COc1ccc(S(=O)(=O)N(CC(C)C)C[C@@H](O)[C@H](Cc2ccccc2)NC(=O)Cn2cnc3cncnc32)cc1`, with 0.24 µM. Next, `COc1nc(N)nc2c1ncn2CC(=O)N[C@@H](Cc1ccccc1)[C@H](O)CN(CC(C)C)S(=O)(=O)c1ccc(N)cc1`: 0.19 µM; `COc1ccc(S(=O)(=O)N(CC(C)C)C[C@@H](O)[C@H](Cc2ccccc2)NC(=O)Cn2cnc3c(O)nc(N)nc32)cc1`: 0.08 µM; `COc1ccc(S(=O)(=O)N(CC(C)C)C[C@@H](O)[C@H](Cc2ccccc2)NC(=O)Cn2cnc3cnc(N)nc32)cc1`: 0.36 µM. On to `CC(C)CN(C[C@@H](O)[C@H](Cc1ccccc1)NC(=O)Cn1cnc2cncnc21)S(=O)(=O)c1ccc([N+](=O)[O-])cc1`, for which the IC50 turned out to be 2.58 µM. Regarding `CC(C)CN(C[C@@H](O)[C@H](Cc1ccccc1)NC(=O)Cn1cnc2c(O)nc(N)nc21)S(=O)(=O)c1ccc([N+](=O)[O-])cc1`, half-maximal inhibition (IC50) was put at 0.79 µM.
